Measured values published in patent US9890152B2 (Genentech, Inc., priority 2012, dated 2018).

target: T1, EGFR del746-750 T790M (Homo sapiens, UniProt P00533, DEL746-750/T790M); assay: EGFR del746-750 T790M biochemical assay (Caliper mobility shift); conditions: 5 μM ATP, 30 min, room temperature; apparent Ki (Morrison) converted by Cheng-Prusoff, Km of ATP 2.1 μM; read-out: EGFR(T790M/d746-750) Ki
T1 construct: purchased Carna Biosciences 08-528
T1 sequence (P00533 with tags, fused parts or gaps DEL746-750/T790M limits assumed): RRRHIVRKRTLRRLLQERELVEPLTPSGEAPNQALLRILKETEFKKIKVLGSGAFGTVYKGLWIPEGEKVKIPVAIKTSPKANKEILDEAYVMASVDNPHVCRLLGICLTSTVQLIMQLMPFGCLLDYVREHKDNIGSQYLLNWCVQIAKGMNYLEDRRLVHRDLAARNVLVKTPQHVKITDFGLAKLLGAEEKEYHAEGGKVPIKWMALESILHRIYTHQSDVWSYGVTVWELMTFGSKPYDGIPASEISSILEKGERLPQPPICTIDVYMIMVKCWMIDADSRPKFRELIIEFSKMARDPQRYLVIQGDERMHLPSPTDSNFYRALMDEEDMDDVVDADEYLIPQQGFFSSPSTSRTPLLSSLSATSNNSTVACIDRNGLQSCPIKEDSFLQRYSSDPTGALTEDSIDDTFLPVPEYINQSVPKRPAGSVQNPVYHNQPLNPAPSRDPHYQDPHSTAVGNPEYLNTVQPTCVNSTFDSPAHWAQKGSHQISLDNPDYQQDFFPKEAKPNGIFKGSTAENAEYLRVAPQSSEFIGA

Ki | SMILES
0.0477 µM | Cc1nc2cnc(Nc3ccnc(-c4cnn(CCCN)c4)n3)cc2n1C(C)C [Example 430, N-(2-(1-(3-aminopropyl)-1H-pyrazol-4-yl)pyrimidin-4-yl)-1-isopropyl-2-methyl-1H-imidazo[4,5-c]pyridin-6-amine]
0.0386 µM | Cc1nc2cnc(Nc3ccnc(-c4cn(CC5CC5)nc4Cl)n3)cc2n1C(C)C [Example 625, N-(2-(3-Chloro-1-(cyclopropylmethyl)-1H-pyrazol-4-yl)pyrimidin-4-yl)-1-isopropyl-2-methyl-1H-imidazo[4,5-c]pyridin-6-amine]
0.00217 µM | CC(CC1CC1)n1c(CO)nc2cnc(Nc3ccnc(-c4cnn(S(=O)(=O)C5CC5)c4)n3)cc21 (stereo not shown) [Example 488, (1-(1-cyclopropylpropan-2-yl)-6-(2-(1-(cyclopropylsulfonyl)-1H-pyrazol-4-yl)pyrimidin-4-ylamino)-1H-imidazo[4,5-c]pyridin-2-yl)methanol]
0.00335 µM | C[C@H](n1c([C@@H](C)O)nc2cnc(Nc3ccnc(N4CC[C@H](O)[C@H](F)C4)n3)cc21)C(F)(F)F [Example 289, (3R,4S)-3-Fluoro-1-{4-[2-((R)-1-hydroxyethyl)-1-((S)-2,2,2-trifluoro-1-methylethyl)-1H-imidazo[4,5-c]pyridin-6-ylamino]pyrimidin-2-yl}-piperidin-4-ol]
2.96 µM | CO[C@@H]1CCN(c2nccc(Nc3cc4c(cn3)nc(CO)n4C(C)C)n2)C[C@H]1C(F)(F)F (racemic) [Example 629, (1-Isopropyl-6-(2-((±)-(trans)-4-methoxy-3-(trifluoromethyl)piperidin-1-yl)pyrimidin-4-ylamino)-1H-imidazo[4,5-c]pyridin-2-yl)methanol]
0.202 µM | CC(C)n1c(CO)nc2cnc(Nc3ccnc(N4CC[C@@H](O)[C@H](C)C4)n3)cc21 (racemic) [Example 630, (±)-(trans)-1-(4-(2-(Hydroxymethyl)-1-isopropyl-1H-imidazo[4,5-c]pyridin-6-ylamino)pyrimidin-2-yl)-3-methylpiperidin-4-ol]
0.0758 µM | Cc1nc2cnc(Nc3ccnc(N4CC[C@H](O)C[C@@H]4C)n3)cc2n1C(C)C [Example 600]
0.0189 µM | Cc1nc2cnc(Nc3ccnc(N4Cc5cn[nH]c5C(C)(C)C4)n3)cc2n1C(C)C [Example 111, N-(2-(7,7-dimethyl-6,7-dihydro-1H-pyrazolo[4,3-c]pyridin-5(4H)-yl)pyrimidin-4-yl)-1-isopropyl-2-methyl-1H-imidazo[4,5-c]pyridin-6-amine]
0.387 µM | C[C@H](O)c1nc2cnc(Nc3ccnc(N4CC[C@H](O)[C@H](F)C4)n3)cc2n1[C@H](C)C(F)(F)F [Example 690]
0.00403 µM | CCC(C)n1cc(C(=O)NC2CCN(C3COC3)CC2)c2cnc(Nc3ccnc(N4CC[C@H](O)[C@H](F)C4)n3)cc21 (mixture of isomers) [Example 389, 1-(sec-butyl)-6-((2-((3R,4S)-3-fluoro-4-hydroxypiperidin-1-yl)pyrimidin-4-yl)amino)-N-(1-(oxetan-3-yl)piperidin-4-yl)-1H-pyrrolo[3,2-c]pyridine-3-carboxamide]
0.000773 µM | CNc1nc(C)c(-c2nccc(Nc3cc4c(cn3)nc(C)n4C(C)C)n2)s1 [Example 611, (1-Isopropyl-2-methyl-1H-imidazo[4,5-c]pyridin-6-yl)-[2-(4-methyl-2-methylaminothiazol-5-yl)pyrimidin-4-yl]amine]
0.00307 µM | Cc1cn[nH]c1-c1cn(C(C)C)c2cc(Nc3ccnc(-c4cnn(S(=O)(=O)C5CC5)c4)n3)ncc12 [Example 346, N-(2-(1-(cyclopropylsulfonyl)-1H-pyrazol-4-yl)pyrimidin-4-yl)-1-isopropyl-3-(4-methyl-1H-pyrazol-5-yl)-1H-pyrrolo[3,2-c]pyridin-6-amine]
0.00345 µM | C[C@H](n1c(CO)nc2cnc(Nc3ccnc(N4CC[C@H](O)[C@H](F)C4)n3)cc21)C(C)(F)F (racemic) [Example 644, (±)-(cis)-1-(4-(1-((S)-3,3-Difluorobutan-2-yl)-2-(hydroxymethyl)-1H-imidazo[4,5-c]pyridin-6-ylamino)pyrimidin-2-yl)-3-fluoropiperidin-4-ol]
0.0147 µM | Cc1nc2cnc(Nc3ccnc(-c4cnoc4)n3)cc2n1C(C)C [Example 366]
1.57 µM | CC(C)n1c(CO)nc2cnc(Nc3ccnc(N4CC[C@@H](O)[C@H](C(F)(F)F)C4)n3)cc21 (racemic) [Example 627, (±)-(trans)-1-(4-(2-(Hydroxymethyl)-1-isopropyl-1H-imidazo[4,5-c]pyridin-6-ylamino)pyrimidin-2-yl)-3-(trifluoromethyl)piperidin-4-ol]
1.25 µM | CC(C)n1c(CO)nc2cnc(Nc3ccnc(N4CC[C@H](O)[C@H](C(F)(F)F)C4)n3)cc21 (racemic) [Example 626, (±)-(cis)-1-(4-(2-(Hydroxymethyl)-1-isopropyl-1H-imidazo[4,5-c]pyridin-6-ylamino)pyrimidin-2-yl)-3-(trifluoromethyl)piperidin-4-ol]
0.00236 µM | Cc1cc(-c2cn(C(C)C)c3cc(Nc4ccnc(-c5cnn(S(=O)(=O)C6CC6)c5)n4)ncc23)nn1CCO [Example 435, 2-(3-(6-(2-(1-(cyclopropylsulfonyl)-1H-pyrazol-4-yl)pyrimidin-4-ylamino)-1-isopropyl-1H-pyrrolo[3,2-c]pyridin-3-yl)-5-methyl-1H-pyrazol-1-yl)ethanol]
0.0935 µM | Cc1nc2cnc(Nc3ccnc(N4CCCC(F)C4)n3)cc2n1C(C)C (stereo not shown) [Example 590, [2-(3-Fluoropiperidin-1-yl)pyrimidin-4-yl]-(1-isopropyl-2-methyl-1H-imidazo[4,5-c]pyridin-6-yl)amine]
0.036 µM | CC(C)n1c(CO)nc2cnc(Nc3ccnc(N4CCC5(OCCO5)C(F)C4)n3)cc21 (stereo not shown) [Example 654]
0.0021 µM | COC1CCN(c2nccc(Nc3cc4c(cn3)c(C(=O)NC3CCN(C)CC3)cn4C(C)C)n2)CC1 [Example 114, 1-isopropyl-6-((2-(4-methoxypiperidin-1-yl)pyrimidin-4-yl)amino)-N-(1-methylpiperidin-4-yl)-1H-pyrrolo[3,2-c]pyridine-3-carboxamide]
0.0082 µM | Cc1nc2cnc(Nc3ccnc(N4CCc5[nH]ncc5C4)n3)cc2n1C(C)C [Example 46, N-(2-(6,7-Dihydro-1H-pyrazolo[4,3-c]pyridin-5(4H)-yl)pyrimidin-4-yl)-1-isopropyl-2-methyl-1H-imidazo[4,5-c]pyridin-6-amine]
0.00385 µM | CCNc1nc2cnc(Nc3ccnc(-c4cnn(S(=O)(=O)C5CC5)c4)n3)cc2n1C(C)C [Example 556]
0.0008 µM | CC(C)n1cc(-c2cnn(C3COC3)c2)c2cnc(Nc3ccnc(-c4cnn(S(=O)(=O)C5CC5)c4)n3)cc21 [Example 441, N-(2-(1-(cyclopropylsulfonyl)-1H-pyrazol-4-yl)pyrimidin-4-yl)-1-isopropyl-3-(1-(oxetan-3-yl)-1H-pyrazol-4-yl)-1H-pyrrolo[3,2-c]pyridin-6-amine]
0.0304 µM | COC1CCN(c2nccc(Nc3cc4c(cn3)nc(C)n4-c3ccccc3)n2)CC1 [Example 494, N-(2-(4-Methoxypiperidin-yl)pyrimidin-4-yl)-2-methyl-1-phenyl-1H-imidazo[4,5-c]pyridin-6-amine]
0.00962 µM | CCc1ncc(-c2nccc(Nc3cc4c(cn3)nc(C)n4C(C)C)n2)s1 [Example 595, [2-(2-Ethylthiazol-5-yl)pyrimidin-4-yl]-(1-isopropyl-2-methyl-1H-imidazo[4,5-c]pyridin-6-yl)amine]
